The record followed here is patent US20040127446A1 (priority 1992, published 2004).

[invAb] = 3' inverted deoxyabasic cap; [amino-N] = 2'-deoxy-2'-amino nucleotide (N: the base); [I] = hypoxanthine (inosine); m = 2'-O-methyl; r = 2'-OH (RNA)

The subject of the series is plus strand HCV RNA. The series is classed as biochemical, Hepatitis C virus. The conditions noted are these: plus strand (+) HCV site, 50 mM Tris-Cl, pH 8.0, 40 mM Mg2+ at 37°, trace substrate, enzymatic nucleic acid concentration of 500 nM or greater.

In the case of “22719 (UGGAAGAUGAUGGCAUGCACUAUGCGCGACUGAGA; sugars from the 5' end mmmmmmmmrrrmmmmmrmmmmmmmmmrmmmmmmmm, [invAb] at 3' end, backbone not given here) [compound 22719]”, the “% Substrate Cleaved in 3 hours” value was 69.88%.

Turning to “22720 (GGAGAGGUGAUGGCAUGCACUAUGCGCGAUAUACA; sugars from the 5' end mmmmmmmmrrrmmmmmrmmmmmmmmmrmmmmmmmm, [invAb] at 3' end, backbone not given here) [compound 22720]”, the “% Substrate Cleaved in 3 hours” value came out at 77.74%.

On to “22721 (UCUAAGGUGAUGGCAUGCACUAUGCGCGACACGGU; sugars from the 5' end mmmmmmmmrrrmmmmmrmmmmmmmmmrmmmmmmmm, [invAb] at 3' end, backbone not given here) [compound 22721]”, for which the “% Substrate Cleaved in 3 hours” value is listed as 47.37%.

With “22722 (ACCACCUUGAUGGCAUGCACUAUGCGCGACUCCAC; sugars from the 5' end mmmmmmmmrrrmmmmmrmmmmmmmmmrmmmmmmmm, [invAb] at 3' end, backbone not given here) [compound 22722]”, the “% Substrate Cleaved in 3 hours” value was found to be 75.84%.

For “22723 (ACAGGUUUGAUGGCAUGCACUAUGCGCGAACUCGU; sugars from the 5' end mmmmmmmmrrrmmmmmrmmmmmmmmmrmmmmmmmm, [invAb] at 3' end, backbone not given here) [compound 22723]”, the “% Substrate Cleaved in 3 hours” value is on record as 61.58%.

Turning to “22748 (AGGUGAAGCCGAAAGGCGAGUGAGGUCUAGCUGAG; 2'-O-methyl at 1, 2, 3, 4, 5, 6, 7, 8, 9, 10, 11, 12, 13, 14, 15, 16, [amino-N] at 17, 27, [invAb] at 3' end, other sugars and backbone not given here) [compound 22748]”, the “% Substrate Cleaved in 3 hours” value is 80.28%.

Turning to “22749 (GGAAAAGGCCGAAAGGCGAGUGAGGUCUAACAGGA; 2'-O-methyl at 1, 2, 3, 4, 5, 6, 7, 8, 9, 10, 11, 12, 13, 14, 15, 16, [amino-N] at 17, 27, [invAb] at 3' end, other sugars and backbone not given here) [compound 22749]”, the “% Substrate Cleaved in 3 hours” value came to 90.80%.

In the case of “22750 (AGAAGAAGCCGAAAGGCGAGUGAGGUCUACGAGGAN; 2'-O-methyl, 2'-amino and inverted abasic, amino positions listed inconsistently, further chemistry not given here) [compound 22750]”, the “% Substrate Cleaved in 3 hours” value was 80.64%.

As for “22751 (GAGUUGAGCCGAAAGGCGAGUGAGGUCUUGGAGUG; 2'-O-methyl at 1, 2, 3, 4, 5, 6, 7, 8, 9, 10, 11, 12, 13, 14, 15, 16, [amino-N] at 17, 27, [invAb] at 3' end, other sugars and backbone not given here) [compound 22751]”, the “% Substrate Cleaved in 3 hours” value is given as 14.85%.

Take “22775 (AAGAGGACUGAUGAGGCCGUUAGGCCGAANAUAGAG; ribozyme; 2'-O-methyl at 1, 2, 3, 4, 5, 6, 7, 15, 16, 17, 18, 19, 20, 21, 22, 23, 24, 25, 26, 31, 32, 33, 34, 35, 36, [I] at 30, [invAb] at 3' end, other sugars and backbone not given here) [compound 22775]”: the “% Substrate Cleaved in 3 hours” value is given as 87.74%.

Take “22776 (GGUGAACCUGAUGAGGCCGUUAGGCCGAANCUGAGA; ribozyme; 2'-O-methyl at 1, 2, 3, 4, 5, 6, 7, 15, 16, 17, 18, 19, 20, 21, 22, 23, 24, 25, 26, 31, 32, 33, 34, 35, 36, [I] at 30, [invAb] at 3' end, other sugars and backbone not given here) [compound 22776]”: the “% Substrate Cleaved in 3 hours” value was determined as 84.55%.

“22777 (CGAGGAACUGAUGAGGCCGUUAGGCCGAANAGAGGA; ribozyme; 2'-O-methyl at 1, 2, 3, 4, 5, 6, 7, 15, 16, 17, 18, 19, 20, 21, 22, 23, 24, 25, 26, 31, 32, 33, 34, 35, 36, [I] at 30, [invAb] at 3' end, other sugars and backbone not given here) [compound 22777]”: the “% Substrate Cleaved in 3 hours” value was determined as 90.12%.

Regarding “22778 (UGAUGGACUGAUGAGGCCGUUAGGCCGAANCUGUGA; ribozyme; 2'-O-methyl at 1, 2, 3, 4, 5, 6, 7, 15, 16, 17, 18, 19, 20, 21, 22, 23, 24, 25, 26, 31, 32, 33, 34, 35, 36, [I] at 30, [invAb] at 3' end, other sugars and backbone not given here) [compound 22778]”, the “% Substrate Cleaved in 3 hours” value was found to be 83.77%.

As to “22779 (UGAGGAACUGAUGAGGCCGUUAGGCCGAANGUGGAG; ribozyme; 2'-O-methyl at 1, 2, 3, 4, 5, 6, 7, 15, 16, 17, 18, 19, 20, 21, 22, 23, 24, 25, 26, 31, 32, 33, 34, 35, 36, [I] at 30, [invAb] at 3' end, other sugars and backbone not given here) [compound 22779]”, the “% Substrate Cleaved in 3 hours” value was 82.22%.

Turning to “22943 (GCUGAGACUGAUGAGGCCGUUAGGCCGAAACGAGGA; 2'-O-methyl at 1, 2, 3, 4, 5, 6, 7, 15, 16, 17, 18, 19, 20, 21, 22, 23, 24, 25, 26, 31, 32, 33, 34, 35, 36, [invAb] at 3' end, other sugars and backbone not given here) [compound 22943]”, the “% Substrate Cleaved in 3 hours” value is 89.67%.

In the case of “22944 (UCCUGUUCUGAUGAGGCCGUUAGGCCGAAAUGUGCC; 2'-O-methyl at 1, 2, 3, 4, 5, 6, 7, 15, 16, 17, 18, 19, 20, 21, 22, 23, 24, 25, 26, 31, 32, 33, 34, 35, 36, [invAb] at 3' end, other sugars and backbone not given here) [compound 22944]”, the “% Substrate Cleaved in 3 hours” value amounted to 90.33%.

For “22945 (GGAAGGACUGAUGAGGCCGUUAGGCCGAAAGGAUGC; 2'-O-methyl at 1, 2, 3, 4, 5, 6, 7, 15, 16, 17, 18, 19, 20, 21, 22, 23, 24, 25, 26, 31, 32, 33, 34, 35, 36, [invAb] at 3' end, other sugars and backbone not given here) [compound 22945]”, the “% Substrate Cleaved in 3 hours” value is recorded as 82.54%.

As for “22946 (CUCCACGCUGAUGAGGCCGUUAGGCCGAAACUCCUC; 2'-O-methyl at 1, 2, 3, 4, 5, 6, 7, 15, 16, 17, 18, 19, 20, 21, 22, 23, 24, 25, 26, 31, 32, 33, 34, 35, 36, [invAb] at 3' end, other sugars and backbone not given here) [compound 22946]”, the “% Substrate Cleaved in 3 hours” value amounted to 78.06%.

On to “22947 (GGAGUGACUGAUGAGGCCGUUAGGCCGAAAAUGCGC; 2'-O-methyl at 1, 2, 3, 4, 5, 6, 7, 15, 16, 17, 18, 19, 20, 21, 22, 23, 24, 25, 26, 31, 32, 33, 34, 35, 36, [invAb] at 3' end, other sugars and backbone not given here) [compound 22947]”, for which the “% Substrate Cleaved in 3 hours” value worked out at 81.88%.

Turning to “22971 (AGGAAGAGGCTAGCTACAACGAAGAGAAAN; 3' inverted abasic cap (B); misc_feature (30)..(30): n stands for inverted deoxyabasic derivative; misc_feature (1)..(7): 2'-O-Methyl; misc_feature (23)..(29): 2'-O-Methyl) [compound 22971]”, the “% Substrate Cleaved in 3 hours” value was 92.11%.

Take “22972 (UGAGAGAGGCTAGCTACAACGAGAGGAAGN; 3' inverted abasic cap (B); Description of Artificial Sequence: Nucleic Acid; misc_feature (30)..(30): "n" is an inverted deoxyabasic moiety; misc_feature (1)..(7): 2'-O-Methyl; misc_feature (23)..(29): 2'-O-Methyl) [compound 22972]”: the “% Substrate Cleaved in 3 hours” value was 86.38%.

Take “22973 (AGGUGAAGGCTAGCTACAACGAAGCUGAGN; 3' inverted abasic cap (B); Description of Artificial Sequence: Nucleic Acid; misc_feature (30)..(30): n stands for inverted deoxyabasic derivative; misc_feature (1)..(7): 2'-O-Methyl; misc_feature (23)..(29): 2'-O-Methyl) [compound 22973]”: the “% Substrate Cleaved in 3 hours” value amounted to 83.15%.

As for “22974 (CUGGUGAGGCTAGCTACAACGAGGAGGCUN; 3' inverted abasic cap (B); misc_feature (30)..(30): n stands for inverted deoxyabasic derivative; misc_feature (1)..(7): 2'-O-Methyl; misc_feature (23)..(29): 2'-O-Methyl) [compound 22974]”, the “% Substrate Cleaved in 3 hours” value is on record as 57.82%.

For the substance “22975 (UGGUGUAGGCTAGCTACAACGAGCGUUGAN; 3' inverted abasic cap (B); Description of Artificial Sequence: Nucleic Acid; misc_feature (30)..(30): n stands for inverted deoxyabasic derivative; misc_feature (1)..(7): 2'-O-Methyl; misc_feature (23)..(29): 2'-O-Methyl) [compound 22975]”, the “% Substrate Cleaved in 3 hours” value is recorded as 75.77%.
